The source of these data is ChEMBL document CHEMBL1135903 (J Med Chem, 2002).

In assay [1] the target is Carbonic anhydrase 1 (Homo sapiens, UniProt P00915).
Description: Inhibitory activity against Human carbonic anhydrase I
Assay [2] concerns the target T1, Carbonic anhydrase 4 (Bos taurus, UniProt Q95323).
T1 sequence (Q95323 whole entry): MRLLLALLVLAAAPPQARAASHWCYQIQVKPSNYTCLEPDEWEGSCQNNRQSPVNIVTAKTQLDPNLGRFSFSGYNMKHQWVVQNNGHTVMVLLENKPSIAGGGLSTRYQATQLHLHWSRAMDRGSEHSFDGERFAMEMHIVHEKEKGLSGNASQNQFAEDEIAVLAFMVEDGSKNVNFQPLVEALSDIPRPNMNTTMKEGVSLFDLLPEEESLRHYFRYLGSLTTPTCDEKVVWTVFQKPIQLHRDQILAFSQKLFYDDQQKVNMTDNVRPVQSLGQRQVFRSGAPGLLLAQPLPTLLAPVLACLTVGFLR
Description: Inhibitory activity against bovine carbonic anhydrase IV

Carbonic anhydrase 1, sequence (P00915 whole entry): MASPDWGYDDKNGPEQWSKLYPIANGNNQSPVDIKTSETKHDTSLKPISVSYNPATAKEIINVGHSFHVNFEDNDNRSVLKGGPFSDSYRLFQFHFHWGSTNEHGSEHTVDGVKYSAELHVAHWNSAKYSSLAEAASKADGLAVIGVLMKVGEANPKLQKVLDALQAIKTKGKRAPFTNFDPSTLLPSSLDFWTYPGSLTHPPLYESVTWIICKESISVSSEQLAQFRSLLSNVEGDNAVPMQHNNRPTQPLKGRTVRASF

Consider `NS(=O)(=O)c1ccc(NC(=O)CN(CCOCCOCCN(CC(=O)O)CC(=O)Nc2ccc(S(N)(=O)=O)cc2I)CC(=O)O)c(I)c1`, for which the inhibitory constant (Ki) – broadly, a dissociation constant, usually derived from enzyme kinetics or from competition with a known ligand – came out at 76 nM in assay [1] and 20 nM in assay [2].
`NS(=O)(=O)c1nnc(NC(=O)CCNC(=O)CNCCNCC(=O)O)s1`: the Ki in assay [1] came out at 240 nM; in assay [2], 39 nM.
For the compound `NS(=O)(=O)c1ccc(CCOC(=O)CN(CC(=O)O)CC(=O)O)cc1`, the figures for the Ki in assay [1] and in assay [2] were 1100 nM and 320 nM, respectively.
In the case of `NS(=O)(=O)c1cccc(NC(=O)CN(CCOCCOCCN(CC(=O)O)CC(=O)O)CC(=O)O)c1`, the inhibitory constant (Ki) amounted to 7450 nM in assay [1] and 500 nM in assay [2].
`NS(=O)(=O)c1cc(S(N)(=O)=O)c(NC(=O)CNCCNCC(=O)O)cc1Cl`: the figures for the inhibition constant Ki in assay [1] and in assay [2] were 250 nM and 135 nM, respectively.
In the same order, the values of `NS(=O)(=O)c1ccc(NC(=O)CN(CCN(CC(=O)O)CC(=O)O)CC(=O)O)cc1` are 6300 nM and 330 nM.
For the compound `NS(=O)(=O)c1ccc(NC(=O)CN(CCOCCOCCN(CC(=O)O)CC(=O)O)CC(=O)O)c(Cl)c1`, the Ki in assay [1] was 230 nM; in assay [2], 30 nM.
For `NS(=O)(=O)c1ccc(CCNC(=O)CN(CCN(CC(=O)O)CC(=O)O)CC(=O)O)cc1`, the inhibition constant Ki worked out at 650 nM in assay [1] and 75 nM in assay [2].
As for `NS(=O)(=O)c1ccccc1NC(=O)CN(CCOCCOCCN(CC(=O)O)CC(=O)Nc1ccccc1S(N)(=O)=O)CC(=O)O`, the Ki worked out at 5600 nM in assay [1] and 320 nM in assay [2].
Turning to `NS(=O)(=O)c1ccc(NC(=O)CNCCNCC(=O)O)c(F)c1`, the results for the Ki in assay [1] and in assay [2] were 780 nM and 103 nM, respectively.
In the same order, the values of `NS(=O)(=O)c1ccc(NC(=O)CN(CCOCCOCCN(CC(=O)O)CC(=O)Nc2ccc(S(N)(=O)=O)cc2Br)CC(=O)O)c(Br)c1` are 85 nM and 25 nM.
As to `NS(=O)(=O)c1ccc(NC(=O)CN(CCN(CC(=O)O)CC(=O)O)CC(=O)O)c(Cl)c1`, the Ki in assay [1] worked out at 700 nM; in assay [2], 69 nM.
For the compound `NS(=O)(=O)c1ccc(COC(=O)CN(CC(=O)O)CC(=O)O)cc1`, the figures for the inhibition constant Ki in assay [1] and in assay [2] were 1200 nM and 350 nM, respectively.
On to `NS(=O)(=O)c1ccc(NNC(=O)CN(CC(=O)O)CC(=O)O)cc1`, for which the inhibition constant (Ki) was 30500 nM in assay [1] and 930 nM in assay [2].
In the same order, the values of `NS(=O)(=O)c1nc2ccc(NC(=O)CN(CC(=O)O)CC(=O)O)cc2s1` are 62 nM and 13 nM.
For the compound `NS(=O)(=O)c1ccc(NC(=O)CN(CCN(CC(=O)O)c2ccccc2O)c2ccccc2O)c(I)c1`, the inhibition constant (Ki) was found to be 220 nM in assay [1] and 90 nM in assay [2].
Take `NS(=O)(=O)c1ccc(NC(=O)CNCCNCC(=O)O)c(Br)c1`: the values for the Ki in assay [1] and in assay [2] were 380 nM and 54 nM, respectively.
In the same order, the values of `NS(=O)(=O)c1ccc(COC(=O)CNCC(=O)O)cc1` are 1260 nM and 350 nM.
In the same order, the values of `NS(=O)(=O)c1cc(S(N)(=O)=O)c(NC(=O)CNCC(=O)O)c(Cl)c1Cl` are 405 nM and 107 nM.
For `NS(=O)(=O)c1cc(S(N)(=O)=O)c(NC(=O)CN(CC(=O)O)CC(=O)O)cc1Cl`, the results for the Ki in assay [1] and in assay [2] were 300 nM and 148 nM, respectively.
In the same order, the values of `NS(=O)(=O)c1ccc(NNC(=O)CN(CCOCCOCCN(CC(=O)O)CC(=O)NNc2ccc(S(N)(=O)=O)cc2)CC(=O)O)cc1` are 9500 nM and 400 nM.
Take `NS(=O)(=O)c1ccc(NC(=O)CNCCNCC(=O)O)cc1`: the Ki turned out to be 12000 nM in assay [1] and 365 nM in assay [2].
In the same order, the values of `NS(=O)(=O)c1ccc(CNC(=O)CN(CCN(CC(=O)O)CC(=O)O)CC(=O)O)cc1` are 900 nM and 83 nM.
As for `NS(=O)(=O)c1nc2ccc(OC(=O)CN(CCN(CC(=O)O)CC(=O)O)CC(=O)O)cc2s1`, the Ki in assay [1] was 43 nM; in assay [2] it was 10 nM.
With `NS(=O)(=O)c1ccc(NC(=O)CN(CCOCCOCCN(CC(=O)O)CC(=O)O)CC(=O)O)cc1`, the Ki in assay [1] amounted to 4000 nM; in assay [2], 170 nM.
In the same order, the values of `NS(=O)(=O)c1ccc(NC(=O)CN(CC(=O)O)CC(=O)O)c(F)c1` are 1000 nM and 136 nM.
With `NS(=O)(=O)c1ccc(CNC(=O)CN(CCOCCOCCN(CC(=O)O)CC(=O)NCc2ccc(S(N)(=O)=O)cc2)CC(=O)O)cc1`, the results for the inhibitory constant (Ki) in assay [1] and in assay [2] were 350 nM and 39 nM, respectively.
In the case of `NS(=O)(=O)c1ccc(NC(=O)CN(CCOCCOCCN(CC(=O)O)CC(=O)Nc2ccc(S(N)(=O)=O)cc2)CC(=O)O)cc1`, the inhibitory constant (Ki) was 3800 nM in assay [1] and 150 nM in assay [2].
In the same order, the values of `NS(=O)(=O)c1cc(S(N)(=O)=O)c(NC(=O)CN(CCN(CC(=O)O)CC(=O)O)CC(=O)O)cc1Cl` are 210 nM and 105 nM.
Take `NS(=O)(=O)c1nc2ccc(NC(=O)CN(CCOCCOCCN(CC(=O)O)CC(=O)O)CC(=O)O)cc2s1`: the Ki worked out at 39 nM in assay [1] and 7 nM in assay [2].
For `NS(=O)(=O)c1ccc(NC(=O)CN(CCOCCOCCN(CC(=O)O)CC(=O)Nc2ccc(S(N)(=O)=O)cc2Cl)CC(=O)O)c(Cl)c1`, the inhibition constant Ki in assay [1] amounted to 150 nM; in assay [2], 22 nM.
For the compound `NS(=O)(=O)c1nc2ccc(OC(=O)CN(CCOCCOCCN(CC(=O)O)CC(=O)O)CC(=O)O)cc2s1`, the Ki in assay [1] worked out at 33 nM; in assay [2] it was 5 nM.
In the same order, the values of `NS(=O)(=O)c1ccc(CCOC(=O)CN(CCOCCOCCN(CC(=O)O)CC(=O)O)CC(=O)O)cc1` are 430 nM and 155 nM.
In the same order, the values of `Cn1nc(S(N)(=O)=O)s/c1=N/C(=O)CN(CCOCCOCCN(CC(=O)O)CC(=O)/N=c1/sc(S(N)(=O)=O)nn1C)CC(=O)O` are 36 nM and 5 nM.
`NS(=O)(=O)c1ccc(NC(=O)CN(CCN(CC(=O)O)CC(=O)Nc2ccc(S(N)(=O)=O)cc2I)CC(=O)O)c(I)c1`: the Ki in assay [1] was found to be 89 nM; in assay [2], 45 nM.
On to `Cn1nc(S(N)(=O)=O)s/c1=N/C(=O)CN(CCN(CC(=O)O)c1ccccc1O)c1ccccc1O`, for which the inhibition constant Ki was 250 nM in assay [1] and 57 nM in assay [2].
In the case of `NS(=O)(=O)c1cc(S(N)(=O)=O)c(NC(=O)CN(CCN(CC(=O)O)c2ccccc2O)c2ccccc2O)cc1Cl`, the Ki in assay [1] was determined as 240 nM; in assay [2], 123 nM.
Consider `NS(=O)(=O)c1nnc(NC(=O)CN(CCOCCOCCN(CC(=O)O)CC(=O)Nc2nnc(S(N)(=O)=O)s2)CC(=O)O)s1`, for which the figures for the inhibition constant (Ki) in assay [1] and in assay [2] were 55 nM and 4 nM, respectively.
On to `NS(=O)(=O)c1ccc(NC(=O)CN(CCN(CC(=O)O)CC(=O)O)CC(=O)O)c(Br)c1`, for which the figures for the inhibitory constant (Ki) in assay [1] and in assay [2] were 130 nM and 50 nM, respectively.
In the same order, the values of `NS(=O)(=O)c1nc2ccc(OC(=O)CN(CCN(CC(=O)O)CC(=O)Oc3ccc4nc(S(N)(=O)=O)sc4c3)CC(=O)O)cc2s1` are 37 nM and 8 nM.
In the same order, the values of `NS(=O)(=O)c1nc2ccc(OC(=O)CN(CCN(CC(=O)O)c3ccccc3O)c3ccccc3O)cc2s1` are 47 nM and 12 nM.
Consider `NS(=O)(=O)c1cccc(NC(=O)CNCCNCC(=O)O)c1`, for which the values for the Ki in assay [1] and in assay [2] were 13000 nM and 1010 nM, respectively.
With `NS(=O)(=O)c1cc(S(N)(=O)=O)c(NC(=O)CN(CCN(CC(=O)O)c2ccccc2O)c2ccccc2O)c(Cl)c1Cl`, the Ki in assay [1] turned out to be 250 nM; in assay [2], 105 nM.
In the same order, the values of `NS(=O)(=O)c1ccc(CCNC(=O)CN(CCOCCOCCN(CC(=O)O)CC(=O)NCCc2ccc(S(N)(=O)=O)cc2)CC(=O)O)cc1` are 30 nM and 12 nM.
For the compound `NS(=O)(=O)c1ccc(NNC(=O)CNCCNCC(=O)O)cc1`, the Ki in assay [1] was 21800 nM; in assay [2] it was 950 nM.
Consider `NS(=O)(=O)c1nc2ccc(OC(=O)CN(CC(=O)O)CC(=O)O)cc2s1`, for which the results for the Ki in assay [1] and in assay [2] were 48 nM and 13 nM, respectively.
On to `NS(=O)(=O)c1ccc(CCOC(=O)CN(CCN(CC(=O)O)c2ccccc2O)c2ccccc2O)cc1`, for which the Ki in assay [1] was 760 nM; in assay [2], 300 nM.
In the same order, the values of `NS(=O)(=O)c1nnc(NC(=O)CN(CCN(CC(=O)O)c2ccccc2O)c2ccccc2O)s1` are 245 nM and 105 nM.
As to `NS(=O)(=O)c1ccc(NNC(=O)CN(CCN(CC(=O)O)CC(=O)NNc2ccc(S(N)(=O)=O)cc2)CC(=O)O)cc1`, the inhibition constant (Ki) in assay [1] came out at 12500 nM; in assay [2], 510 nM.
In the same order, the values of `Cn1nc(S(N)(=O)=O)s/c1=N/C(=O)CNCC(=O)O` are 710 nM and 120 nM.
In the same order, the values of `NS(=O)(=O)c1ccc(CNC(=O)CN(CCOCCOCCN(CC(=O)O)CC(=O)O)CC(=O)O)cc1` are 610 nM and 48 nM.
In the same order, the values of `NS(=O)(=O)c1ccc(NC(=O)CN(CC(=O)O)CC(=O)O)c(Br)c1` are 620 nM and 53 nM.
In the case of `NS(=O)(=O)c1ccc(NC(=O)CN(CCN(CC(=O)O)CC(=O)Nc2ccc(S(N)(=O)=O)cc2Br)CC(=O)O)c(Br)c1`, the Ki in assay [1] was 105 nM; in assay [2], 34 nM.
Turning to `NS(=O)(=O)c1ccccc1NC(=O)CN(CCN(CC(=O)O)CC(=O)O)CC(=O)O`, the results for the Ki in assay [1] and in assay [2] were 9200 nM and 800 nM, respectively.
In the same order, the values of `NS(=O)(=O)c1nc2ccc(NC(=O)CN(CCOCCOCCN(CC(=O)O)CC(=O)Nc3ccc4nc(S(N)(=O)=O)sc4c3)CC(=O)O)cc2s1` are 23 nM and 4 nM.
In the same order, the values of `NS(=O)(=O)c1ccc(CCNC(=O)CN(CCOCCOCCN(CC(=O)O)CC(=O)O)CC(=O)O)cc1` are 290 nM and 32 nM.
In the same order, the values of `NS(=O)(=O)c1cc(S(N)(=O)=O)c(NC(=O)CNCCNCC(=O)O)c(Cl)c1Cl` are 290 nM and 110 nM.
For `NS(=O)(=O)c1ccc(CCOC(=O)CNCCNCC(=O)O)cc1`, the figures for the Ki in assay [1] and in assay [2] were 1000 nM and 330 nM, respectively.
